Laboratory results as given in ChEMBL document CHEMBL4507304, “Data for DCP probe TP-021” (2021).

Key:
[1] = molecular target: RAC-alpha serine/threonine-protein kinase (Homo sapiens) (UniProt P31749); settings: Compound concentration 1000.0 nM
[2] = molecular target: ALK tyrosine kinase receptor (Homo sapiens) (UniProt Q9UM73); settings: Compound concentration 1000.0 nM
[3] = molecular target: 5'-AMP-activated protein kinase catalytic subunit alpha-1 (Homo sapiens) (UniProt Q13131); settings: Compound concentration 1000.0 nM
[4] = molecular target: Tyrosine-protein kinase Blk (Homo sapiens) (UniProt P51451); settings: Compound concentration 1000.0 nM
[5] = molecular target: Serine/threonine-protein kinase B-raf (Homo sapiens) (UniProt P15056); settings: Compound concentration 1000.0 nM
[6] = molecular target: Calcium/calmodulin-dependent protein kinase type 1 (Homo sapiens) (UniProt Q14012); settings: Compound concentration 1000.0 nM
[7] = molecular target: Cyclin-dependent kinase 7 (Homo sapiens) (UniProt P50613); settings: Compound concentration 1000.0 nM
[8] = molecular target: Cyclin-dependent kinase 9 (Homo sapiens) (UniProt P50750); settings: Compound concentration 1000.0 nM
[9] = molecular target: Cyclin-dependent kinase-like 2 (Homo sapiens) (UniProt Q92772); settings: Compound concentration 1000.0 nM
[10] = test system: Epidermal growth factor receptor (Homo sapiens), P00533 [L861Q]; settings: Compound concentration 1000.0 nM
[11] = test system: Epidermal growth factor receptor (Homo sapiens), P00533 [T790M]; settings: Compound concentration 1000.0 nM
[12] = molecular target: Eukaryotic translation initiation factor 2-alpha kinase 1 (Homo sapiens) (UniProt Q9BQI3); settings: Compound concentration 1000.0 nM
[13] = molecular target: Mitogen-activated protein kinase 3 (Homo sapiens) (UniProt P27361); settings: Compound concentration 1000.0 nM
[14] = molecular target: Inhibitor of nuclear factor kappa-B kinase subunit alpha (Homo sapiens) (UniProt O15111); settings: Compound concentration 1000.0 nM
[15] = molecular target: Insulin receptor-related protein (Homo sapiens) (UniProt P14616); settings: Compound concentration 1000.0 nM
[16] = molecular target: Interleukin-1 receptor-associated kinase 1 (Homo sapiens) (UniProt P51617); settings: Compound concentration 1000.0 nM
[17] = molecular target: Mitogen-activated protein kinase 8 (Homo sapiens) (UniProt P45983); settings: Compound concentration 1000.0 nM
[18] = molecular target: Mast/stem cell growth factor receptor Kit (Homo sapiens) (UniProt P10721); settings: Compound concentration 1000.0 nM
[19] = molecular target: Tyrosine-protein kinase Lck (Homo sapiens) (UniProt P06239); settings: Compound concentration 1000.0 nM
[20] = molecular target: Mitogen-activated protein kinase kinase kinase 4 (Homo sapiens) (UniProt Q9Y6R4); settings: Compound concentration 1000.0 nM
[21] = molecular target: Serine/threonine-protein kinase MARK2 (Homo sapiens) (UniProt Q7KZI7); settings: Compound concentration 1000.0 nM
[22] = molecular target: Myosin light chain kinase (Homo sapiens) (UniProt Q32MK0); settings: Compound concentration 1000.0 nM
[23] = molecular target: Mitogen-activated protein kinase kinase kinase 11 (Homo sapiens) (UniProt Q16584); settings: Compound concentration 1000.0 nM
[24] = molecular target: Serine/threonine-protein kinase MRCK beta (Homo sapiens) (UniProt Q9Y5S2); settings: Compound concentration 1000.0 nM
[25] = molecular target: Serine/threonine-protein kinase mTOR (Homo sapiens) (UniProt P42345); settings: Compound concentration 1000.0 nM
[26] = molecular target: Serine/threonine-protein kinase Nek10 (Homo sapiens) (UniProt Q6ZWH5); settings: Compound concentration 1000.0 nM
[27] = molecular target: Serine/threonine-protein kinase OSR1 (Homo sapiens) (UniProt O95747); settings: Compound concentration 1000.0 nM
[28] = molecular target: Mitogen-activated protein kinase 11 (Homo sapiens) (UniProt Q15759); settings: Compound concentration 1000.0 nM
[29] = molecular target: Cyclin-dependent kinase 14 (Homo sapiens) (UniProt O94921); settings: Compound concentration 1000.0 nM
[30] = molecular target: Phosphatidylinositol 3-kinase C2 domain-containing subunit gamma (Homo sapiens) (UniProt O75747); settings: Compound concentration 1000.0 nM
[31] = molecular target: Protein kinase C theta type (Homo sapiens) (UniProt Q04759); settings: Compound concentration 1000.0 nM
[32] = molecular target: Serine/threonine-protein kinase D1 (Homo sapiens) (UniProt Q15139); settings: Compound concentration 1000.0 nM
[33] = molecular target: Receptor-interacting serine/threonine-protein kinase 1 (Homo sapiens) (UniProt Q13546); settings: Compound concentration 1000.0 nM
[34] = molecular target: Ribosomal protein S6 kinase alpha-5 (Homo sapiens) (UniProt O75582); settings: Compound concentration 1000.0 nM
[35] = molecular target: Serine/threonine-protein kinase Sgk1 (Homo sapiens) (UniProt O00141); settings: Compound concentration 1000.0 nM
[36] = molecular target: Serine/threonine-protein kinase 33 (Homo sapiens) (UniProt Q9BYT3); settings: Compound concentration 1000.0 nM
[37] = molecular target: TGF-beta receptor type-1 (Homo sapiens) (UniProt P36897); settings: Compound concentration 1000.0 nM
[38] = molecular target: Tyrosine-protein kinase receptor Tie-1 (Homo sapiens) (UniProt P35590); settings: Compound concentration 1000.0 nM
[39] = molecular target: Serine/threonine-protein kinase tousled-like 2 (Homo sapiens) (UniProt Q86UE8); settings: Compound concentration 1000.0 nM
[40] = molecular target: Transient receptor potential cation channel subfamily M member 6 (Homo sapiens) (UniProt Q9BX84); settings: Compound concentration 1000.0 nM
[41] = molecular target: Testis-specific serine/threonine-protein kinase 3 (Homo sapiens) (UniProt Q96PN8); settings: Compound concentration 1000.0 nM
[42] = molecular target: Serine/threonine-protein kinase WNK3 (Homo sapiens) (UniProt Q9BYP7); settings: Compound concentration 1000.0 nM
[43] = molecular target: 5-hydroxytryptamine receptor 1A (Homo sapiens) (UniProt P08908); settings: Compound concentration 10.0 uM
[44] = molecular target: GABA-A receptor; anion channel (Rattus norvegicus) (UniProt O09028+P15431+P18506+P18508+P19969+P20236+P23574+P23576+P28471+P28473+P30191+P62813+P63079+P63138+Q91ZM7+Q9ES14); settings: Compound concentration 10.0 uM

Sequence of Serine/threonine-protein kinase MRCK beta (Homo sapiens) (Q9Y5S2 whole entry): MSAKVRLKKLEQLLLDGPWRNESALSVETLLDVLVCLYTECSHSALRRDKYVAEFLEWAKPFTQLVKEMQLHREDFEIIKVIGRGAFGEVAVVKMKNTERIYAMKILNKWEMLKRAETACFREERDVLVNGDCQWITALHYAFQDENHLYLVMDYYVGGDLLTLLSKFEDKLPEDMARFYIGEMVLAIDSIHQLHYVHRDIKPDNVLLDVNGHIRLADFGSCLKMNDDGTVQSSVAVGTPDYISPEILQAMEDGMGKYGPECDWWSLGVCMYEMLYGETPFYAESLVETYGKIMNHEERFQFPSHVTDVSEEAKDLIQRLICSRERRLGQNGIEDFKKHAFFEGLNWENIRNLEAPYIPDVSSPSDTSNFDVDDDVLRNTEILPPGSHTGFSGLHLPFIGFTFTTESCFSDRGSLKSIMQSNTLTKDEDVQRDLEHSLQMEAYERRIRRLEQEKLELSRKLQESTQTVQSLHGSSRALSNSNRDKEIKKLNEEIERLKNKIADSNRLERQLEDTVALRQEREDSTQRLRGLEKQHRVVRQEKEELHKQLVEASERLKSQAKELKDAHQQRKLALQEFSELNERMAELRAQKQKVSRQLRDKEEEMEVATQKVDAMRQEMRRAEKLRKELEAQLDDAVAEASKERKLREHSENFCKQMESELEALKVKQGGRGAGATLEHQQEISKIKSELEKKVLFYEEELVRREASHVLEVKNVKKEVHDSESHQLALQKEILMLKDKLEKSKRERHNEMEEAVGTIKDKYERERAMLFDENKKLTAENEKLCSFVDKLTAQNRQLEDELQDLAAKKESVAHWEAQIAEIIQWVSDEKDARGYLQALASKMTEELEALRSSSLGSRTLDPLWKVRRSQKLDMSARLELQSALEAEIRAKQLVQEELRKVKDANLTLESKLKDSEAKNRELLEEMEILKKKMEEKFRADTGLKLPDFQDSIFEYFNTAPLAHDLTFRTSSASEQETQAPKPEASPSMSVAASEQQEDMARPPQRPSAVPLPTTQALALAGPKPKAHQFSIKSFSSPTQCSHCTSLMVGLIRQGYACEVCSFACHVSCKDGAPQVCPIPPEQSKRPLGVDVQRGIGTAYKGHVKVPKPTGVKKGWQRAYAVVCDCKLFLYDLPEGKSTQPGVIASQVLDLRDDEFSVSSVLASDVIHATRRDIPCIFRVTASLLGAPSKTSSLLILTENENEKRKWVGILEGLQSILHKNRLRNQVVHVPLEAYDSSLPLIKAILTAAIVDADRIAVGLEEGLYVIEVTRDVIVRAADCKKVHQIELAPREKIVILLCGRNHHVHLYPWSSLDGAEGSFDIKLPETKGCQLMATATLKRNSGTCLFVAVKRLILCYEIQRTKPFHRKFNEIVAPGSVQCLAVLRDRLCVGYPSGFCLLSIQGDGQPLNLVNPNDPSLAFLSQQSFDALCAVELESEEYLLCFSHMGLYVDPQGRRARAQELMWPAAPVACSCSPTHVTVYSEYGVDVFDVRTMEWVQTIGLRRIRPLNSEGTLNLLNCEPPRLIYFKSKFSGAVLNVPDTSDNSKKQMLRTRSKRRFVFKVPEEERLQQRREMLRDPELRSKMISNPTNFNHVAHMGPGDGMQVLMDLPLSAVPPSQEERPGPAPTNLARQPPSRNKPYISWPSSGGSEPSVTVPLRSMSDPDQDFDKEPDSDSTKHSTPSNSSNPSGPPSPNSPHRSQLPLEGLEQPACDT
Sequence of Ribosomal protein S6 kinase alpha-5 (Homo sapiens) (O75582 whole entry, looked up): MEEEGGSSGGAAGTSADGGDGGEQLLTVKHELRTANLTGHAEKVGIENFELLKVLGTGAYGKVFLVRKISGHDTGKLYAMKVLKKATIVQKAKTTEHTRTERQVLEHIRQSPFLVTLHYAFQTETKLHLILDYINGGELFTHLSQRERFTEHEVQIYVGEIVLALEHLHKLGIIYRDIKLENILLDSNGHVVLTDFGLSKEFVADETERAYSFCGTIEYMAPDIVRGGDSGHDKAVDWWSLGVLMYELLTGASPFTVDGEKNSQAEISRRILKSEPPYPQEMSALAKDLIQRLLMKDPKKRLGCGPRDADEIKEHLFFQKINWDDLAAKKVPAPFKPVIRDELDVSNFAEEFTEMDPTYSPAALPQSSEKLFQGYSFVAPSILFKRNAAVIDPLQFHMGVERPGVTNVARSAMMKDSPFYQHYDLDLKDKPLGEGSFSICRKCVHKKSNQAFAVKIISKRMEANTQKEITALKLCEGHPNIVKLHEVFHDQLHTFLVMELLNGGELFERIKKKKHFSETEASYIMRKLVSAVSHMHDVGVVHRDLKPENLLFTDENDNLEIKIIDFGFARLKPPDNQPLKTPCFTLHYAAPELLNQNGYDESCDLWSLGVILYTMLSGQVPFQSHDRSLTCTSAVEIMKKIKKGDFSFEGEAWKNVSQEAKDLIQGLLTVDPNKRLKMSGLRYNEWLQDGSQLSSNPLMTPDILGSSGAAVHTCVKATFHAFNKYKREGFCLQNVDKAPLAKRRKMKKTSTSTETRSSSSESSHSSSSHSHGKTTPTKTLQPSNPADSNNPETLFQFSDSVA
Sequence of Serine/threonine-protein kinase OSR1 (Homo sapiens) (O95747 2-527 limits assumed): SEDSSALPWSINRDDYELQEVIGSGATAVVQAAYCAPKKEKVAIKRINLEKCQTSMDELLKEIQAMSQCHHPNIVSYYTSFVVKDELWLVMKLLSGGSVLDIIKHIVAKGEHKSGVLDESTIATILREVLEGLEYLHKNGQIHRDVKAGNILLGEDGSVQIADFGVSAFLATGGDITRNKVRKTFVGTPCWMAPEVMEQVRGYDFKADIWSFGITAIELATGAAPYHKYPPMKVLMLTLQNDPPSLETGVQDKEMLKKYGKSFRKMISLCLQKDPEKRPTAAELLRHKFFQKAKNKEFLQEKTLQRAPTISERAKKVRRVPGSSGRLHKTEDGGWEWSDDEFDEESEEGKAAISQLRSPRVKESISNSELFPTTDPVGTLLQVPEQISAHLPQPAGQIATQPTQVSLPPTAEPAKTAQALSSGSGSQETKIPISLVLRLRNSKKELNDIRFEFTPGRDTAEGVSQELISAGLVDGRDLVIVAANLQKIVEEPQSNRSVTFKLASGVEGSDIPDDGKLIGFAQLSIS
Sequence of ALK tyrosine kinase receptor (Homo sapiens) (Q9UM73 19-1620 limits assumed): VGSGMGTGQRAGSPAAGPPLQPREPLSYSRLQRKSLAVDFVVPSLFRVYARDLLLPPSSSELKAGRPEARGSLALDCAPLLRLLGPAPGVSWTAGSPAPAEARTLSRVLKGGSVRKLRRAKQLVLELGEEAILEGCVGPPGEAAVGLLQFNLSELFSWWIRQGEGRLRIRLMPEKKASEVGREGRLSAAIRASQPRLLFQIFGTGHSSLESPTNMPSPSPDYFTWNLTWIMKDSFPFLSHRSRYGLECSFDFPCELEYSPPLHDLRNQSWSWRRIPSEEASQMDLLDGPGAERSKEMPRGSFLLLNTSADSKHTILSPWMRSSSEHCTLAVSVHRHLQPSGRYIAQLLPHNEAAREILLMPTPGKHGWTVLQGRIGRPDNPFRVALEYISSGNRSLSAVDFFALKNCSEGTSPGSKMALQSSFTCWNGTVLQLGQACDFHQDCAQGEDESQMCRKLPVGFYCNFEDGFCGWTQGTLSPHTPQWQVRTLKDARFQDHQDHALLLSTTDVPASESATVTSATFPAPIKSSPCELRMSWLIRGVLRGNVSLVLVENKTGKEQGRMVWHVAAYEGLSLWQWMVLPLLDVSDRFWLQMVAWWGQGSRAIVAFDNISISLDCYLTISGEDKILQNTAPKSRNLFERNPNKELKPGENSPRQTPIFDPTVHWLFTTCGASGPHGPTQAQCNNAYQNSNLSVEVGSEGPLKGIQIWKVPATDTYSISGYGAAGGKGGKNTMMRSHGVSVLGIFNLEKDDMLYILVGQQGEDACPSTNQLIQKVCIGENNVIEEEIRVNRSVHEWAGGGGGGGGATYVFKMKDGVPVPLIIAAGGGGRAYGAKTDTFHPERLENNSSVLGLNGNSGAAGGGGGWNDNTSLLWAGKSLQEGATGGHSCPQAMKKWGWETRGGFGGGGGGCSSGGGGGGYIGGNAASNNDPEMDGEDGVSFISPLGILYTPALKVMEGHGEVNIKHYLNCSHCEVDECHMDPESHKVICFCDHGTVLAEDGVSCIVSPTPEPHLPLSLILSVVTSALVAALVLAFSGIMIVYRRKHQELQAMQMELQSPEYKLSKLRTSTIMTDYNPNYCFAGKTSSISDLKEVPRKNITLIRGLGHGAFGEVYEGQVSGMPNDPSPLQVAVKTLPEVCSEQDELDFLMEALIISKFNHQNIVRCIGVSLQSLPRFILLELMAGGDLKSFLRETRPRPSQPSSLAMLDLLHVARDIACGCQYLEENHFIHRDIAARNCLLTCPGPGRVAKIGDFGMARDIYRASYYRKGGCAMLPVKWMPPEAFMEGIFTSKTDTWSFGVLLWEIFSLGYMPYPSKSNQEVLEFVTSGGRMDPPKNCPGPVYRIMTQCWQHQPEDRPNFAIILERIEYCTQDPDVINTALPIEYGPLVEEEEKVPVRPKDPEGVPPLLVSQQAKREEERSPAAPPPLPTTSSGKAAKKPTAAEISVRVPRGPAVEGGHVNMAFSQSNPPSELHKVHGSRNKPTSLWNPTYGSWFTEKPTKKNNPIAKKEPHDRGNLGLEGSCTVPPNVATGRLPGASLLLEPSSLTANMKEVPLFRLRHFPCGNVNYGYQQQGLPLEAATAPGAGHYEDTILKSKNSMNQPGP
Sequence of Mitogen-activated protein kinase 3 (Homo sapiens) (P27361 whole entry): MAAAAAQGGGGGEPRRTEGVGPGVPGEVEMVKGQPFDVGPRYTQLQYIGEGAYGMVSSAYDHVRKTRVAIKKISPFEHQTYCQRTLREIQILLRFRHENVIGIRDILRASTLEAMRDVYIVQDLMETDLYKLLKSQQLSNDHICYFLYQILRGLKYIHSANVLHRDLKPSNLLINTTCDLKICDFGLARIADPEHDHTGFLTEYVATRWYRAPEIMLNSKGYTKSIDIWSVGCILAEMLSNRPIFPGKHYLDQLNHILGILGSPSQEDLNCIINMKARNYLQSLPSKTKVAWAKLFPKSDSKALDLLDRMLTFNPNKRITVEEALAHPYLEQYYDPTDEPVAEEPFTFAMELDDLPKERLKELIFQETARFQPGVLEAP

N#Cc1ccc(Nc2ccc3[nH]c(=O)[nH]c3c2)c(Cl)c1
inactive: residual activity [1] 67% | residual activity [2] 100% | residual activity [3] 100% | residual activity [4] 97% | residual activity [5] 100% | residual activity [6] 86% | residual activity [7] 99% | residual activity [8] 100% | residual activity [9] 100% | residual activity [10] 100% | residual activity [11] 91% | residual activity [12] 100% | residual activity [13] 95% | residual activity [14] 100% | residual activity [15] 100% | residual activity [16] 100% | residual activity [17] 98% | residual activity [18] 100% | residual activity [19] 100% | residual activity [20] 95% | residual activity [21] 78% | residual activity [22] 93% | residual activity [23] 100% | residual activity [24] 100% | residual activity [25] 98% | residual activity [26] 100% | residual activity [27] 75% | residual activity [28] 100% | residual activity [29] 100% | residual activity [30] 95% | residual activity [31] 90% | residual activity [32] 82% | residual activity [33] 100% | residual activity [34] 100% | residual activity [35] 100% | residual activity [36] 93% | residual activity [37] 100% | residual activity [38] 91% | residual activity [39] 96% | residual activity [40] 100% | residual activity [41] 100% | residual activity [42] 100% | inhibition [43] -5.44% | inhibition [44] 15.5%

O=C1CCc2cc(Nc3cc(OC4CCOCC4)c([N+](=O)[O-])cc3Cl)ccc2N1
inactive: residual activity [1] 98% | residual activity [2] 82% | residual activity [3] 100% | residual activity [4] 94% | residual activity [5] 100% | residual activity [6] 93% | residual activity [7] 86% | residual activity [8] 97% | residual activity [9] 92% | residual activity [10] 100% | residual activity [11] 85% | residual activity [12] 100% | residual activity [13] 78% | residual activity [14] 100% | residual activity [15] 100% | residual activity [16] 98% | residual activity [17] 91% | residual activity [18] 95% | residual activity [19] 100% | residual activity [20] 85% | residual activity [21] 71% | residual activity [22] 100% | residual activity [23] 100% | residual activity [24] 90% | residual activity [25] 89% | residual activity [26] 100% | residual activity [27] 83% | residual activity [28] 88% | residual activity [29] 100% | residual activity [30] 94% | residual activity [31] 92% | residual activity [32] 87% | residual activity [33] 100% | residual activity [34] 100% | residual activity [35] 100% | residual activity [36] 77% | residual activity [37] 100% | residual activity [38] 100% | residual activity [39] 81% | residual activity [40] 100% | residual activity [41] 100% | residual activity [42] 87% | inhibition [43] -4.09% | inhibition [44] 12.7%
